In patent US10172814B2, “Substituted pyridyl-cycloalkyl-carboxylic acids, compositions containing them and medical uses thereof” (BAYER PHARMA AKTIENGESELLSCHAFT, priority 2014, dated 2019):

Target: human PTGES (Homo sapiens (Human), UniProt O14684)
Assay: Human PTGES biochemical enzyme inhibition assay (conversion of PGH2 to PGE2, TR-FRET)
Settings: Enzymatic conversion of PGH2 to PGE2; read-out: Human PTGES IC50
How it was run: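 FLAG-tagged human PTGES from Hi-5 insect cells preincubated 15–20 min with compound in pH 7.2 phosphate buffer with 2.5 mM reduced glutathione; reaction started with 8 nM PGH2 final, stopped with SnCl2/KF.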

human PTGES, sequence (O14684 whole entry): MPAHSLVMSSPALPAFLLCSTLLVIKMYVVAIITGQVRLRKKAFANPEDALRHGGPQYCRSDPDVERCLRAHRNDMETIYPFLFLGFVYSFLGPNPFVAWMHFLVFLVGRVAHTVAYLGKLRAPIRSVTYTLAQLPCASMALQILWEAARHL

SMILES | IC50 [µM]
COc1ccc(NC(=O)C(c2ccc(-c3cncc(C(F)(F)F)c3)cc2)C2CCCC2)c(C)c1CCC(=O)O (racemic) [Example 40, (R/S) 3-{3-[(Cyclopentyl{4-[5-(trifluoromethyl)pyridin-3-yl]phenyl}acetyl)amino]-6-methoxy-2-methylphenyl}propanoic acid] | 0.0282
Cc1c(NC(=O)C(c2ccc(-c3cncc(Cl)c3)c(F)c2)C2CCC2)cccc1C(C)CC(=O)O (single isomer, unassigned; stereoisomer 4) [Example 153, 3-[3-({[4-(5-Chloropyridin-3-yl)-3-fluorophenyl](cyclobutyl)acetyl}amino)-2-methylphenyl]butanoic acid, Stereoisomer 4] | 0.0117
Cc1c(CCC(=O)O)cccc1NC(=O)C(c1ccc(-c2cncc(C(F)F)c2)cc1)C1CCCC1 (racemic) [Example 29, (R/S) 3-{3-[(Cyclopentyl{4-[5-(difluoromethyl)pyridin-3-yl]phenyl}acetyl)amino]-2-methylphenyl}propanoic acid] | 0.0782
Cc1ncc(-c2ccc(C(C(=O)Nc3cccc(CCC(=O)O)c3C)C3CCC3)cc2)cc1Cl (racemic) [Example 61, (R/S) 3-[3-({[4-(5-chloro-6-methylpyridin-3-yl)phenyl](cyclobutyl)acetyl}amino)-2-methylphenyl]propanoic acid] | 0.0322
Cc1c(CCC(=O)O)cccc1NC(=O)C(c1ccc(-c2cccnc2F)cc1)C1CCCC1 (racemic) [Example 23, (R/S) 3-[3-({cyclopentyl[4-(2-fluoro-pyridin-3-yl)-phenyl]-acetyl}amino)-2-methyl-phenyl]propanoic acid] | 5.26
Cc1c(CCC(=O)O)cccc1NC(=O)C(c1ccc(-c2cncc(OC(C)C)c2)c(F)c1)C1CCCC1 (single isomer, unassigned; (-)) [Example 199, (−) 3-[3-({cyclopentyl[3-fluoro-4-(5-isopropoxypyridin-3-yl)phenyl]acetyl}amino)-2-methylphenyl]propanoic acid, Single Enantiomer] | 0.0302
Cc1c(CC(C)C(=O)O)cccc1NC(=O)C(c1ccc(-c2cncc(OC(F)F)c2)cc1)C1CCCC1 (stereo not drawn) [Example 80, (2R/2S)-3-(3-{[(2R/2S)-2-Cyclopentyl-2-{4-[5-(difluoromethoxy)pyridin-3-yl]phenyl}acetyl]amino}-2-methylphenyl)-2-methylpropanoic acid] | 0.0885
Cc1c(NC(=O)C(c2ccc(-c3cncc(C(F)(F)F)c3)c(F)c2)C2CCC2)cccc1C(C)CC(=O)O (mixture of isomers) [Example 145, (3R/S)-3-(3-{[(2R/S)-2-Cyclobutyl-2-{3-fluoro-4-[5-(trifluoromethyl)pyridin-3-yl]phenyl}acetyl]amino}-2-methylphenyl)butanoic acid] | 0.0504
Cc1ncc(-c2ccc(C(C(=O)Nc3cc(F)cc(CCC(=O)O)c3C)C3CCCC3)cc2)cc1Cl (racemic) [Example 169, (R/S) 3-[3-({[4-(5-chloro-6-methylpyridin-3-yl)phenyl](cyclopentyl)acetyl}amino)-5-fluoro-2-methylphenyl]propanoic acid] | 0.254
Cc1cc(C(C(=O)Nc2cccc(CCC(=O)O)c2C)C2CCCC2)ccc1-c1cncc(C(F)(F)F)c1 (racemic) [Example 41, (R/S) 3-{3-[(Cyclopentyl{3-methyl-4-[5-(trifluoromethyl)pyridin-3-yl]phenyl}acetyl)amino]-2-methylphenyl}propanoic acid] | 0.0192
Cc1ccc(-c2ccc(C(C(=O)Nc3cccc(CC(C)C(=O)O)c3C)C3CCCC3)cc2)cn1 (stereo not drawn) [Example 79, (2R/2S)-3-[3-({(2R/2S)-2-Cyclopentyl-2-[4-(6-methylpyridin-3-yl)phenyl]acetyl}amino)-2-methylphenyl]-2-methylpropanoic acid] | 0.433
Cc1c(NC(=O)C(c2ccc(-c3cncc(Cl)c3)cc2)C2CCC2)cccc1C(C)CC(=O)O (mixture of isomers) [Example 135, (3R/S)-3-[3-({(2R/S)-2-[4-(5-Chloropyridin-3-yl)phenyl]-2-cyclobutylacetyl}amino)-2-methylphenyl]butanoic acid] | 0.0862
